Our source for the IC50 values is ChEMBL document CHEMBL5107981, “A comprehensive comparative study on LSD1 in different cancers and tumor specific LSD1 inhibitors” (Eur J Med Chem, 2022).

Molecules are shown by their SMILES.

Assay [1] addresses T1, Lysine-specific histone demethylase 1A (Homo sapiens, UniProt O60341).
Description: Inhibition of LSD1 (unknown origin)
The target of assay [2] is T1, Lysine-specific histone demethylase 1A. The assay can be described thus: Inhibition of recombinant LSD1 (unknown origin) incubated for 1 hr.
Assay [3] is described as follows: Antiproliferative activity against human AML cell. Conditions: Acute myeloid leukemic cell. The format is functional, cell-based.
A short description of assay [4]: Antiproliferative activity against human SCLC cell. Format: functional, cell-based. The following applies: Small cell lung cancer cell line.

What is called IC50 is the concentration at which inhibition is half-maximal. In assay [1], `C/C(=N\NC(=O)c1cccc(S(=O)(=O)N2CCN(C)CC2)c1)c1cc(Cl)ccc1O` gave an IC50 of 13 nM.
In the case of `Oc1ccc(/C=C/c2cc(O)cc(O)c2)cc1` [RESVERATROL], in assay [2], the concentration for half-maximal inhibition (IC50) turned out to be 15 µM.
In the case of `O=C(O)c1ccc(CN2CCC(CN[C@@H]3C[C@H]3c3ccccc3)CC2)cc1` [GSK2879552], the IC50 in assay [3] and in assay [4] was 24 nM each time.
